The record followed here is patent US12398141B2 (SHANGHAI SYNERGY PHARMACEUTICAL SCIENCES CO., LTD, priority 2019, dated 2025).

One assay addresses JAK1 (Homo sapiens (Human), UniProt P23458). As to the kind of experiment: JAK1 LANCE Ultra kinase assay. The class given is biochemical. The settings on record: for IC50: 38 uM ATP; for JAK2/JAK1: ratio of IC50 JAK2 to IC50 JAK1. A digest of the protocol: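 JAK1 preincubated with compound 10 min at room temperature, then ULight-JAK-1 peptide/ATP added for 90 min at room temperature; stopped with EDTA, Eu-W1024 anti-phosphotyrosine TR-FRET read after 60 min. Inhibition normalised to DMSO and blank wells; IC50 from curve fit.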

The target of the next assay is hERG potassium channel (Homo sapiens (Human), UniProt Q12809). As to the kind of experiment: hERG potassium channel current, manual patch clamp. The class given is cell-based. The settings on record: HEK293 cells overexpressing hERG potassium channel, whole-cell patch clamp; read-out: IC50 (μM) inhibiting hERG current. How it is done:
Effects of compounds H07, H12, H14, H25, H30, H39 and H44 on hERG potassium channel were detected by applying electrophysiological manual patch clamp to study an initial cardiac safety of the compounds of the invention.
Test compounds were dissolved in dimethyl sulfoxide to prepare mother solutions (10 mM, 3.3 mM, 1.1 mM and 0.37 mM). Next an extracellular fluid was used for secondary dilution so that the test solution had final concentrations of 30 μM, 10 μM, 3.3 μM, 1.1 μM and 0.37 μM.
Extracellular fluids: 130 mM sodium chloride, 4 mM potassium chloride, 1.8 mM calcium chloride, 1 mM magnesium chloride, 10 mM glucose, 10 mM 4-hydroxyethylpiperazine ethane sulfonic acid (pH 7.4)
Intracellular fluid: 130 mM potassium chloride, 1 mM magnesium chloride, 5 mM ethylene glycol diethyl ether diamine tetraacetic acid, 5 mM triphosadenine and 10 mM 4-hydroxyethylpiperazine ethane sulfonic acid (pH7.2)
Compositions of a cell culture medium: Dulbecco's modified eagle medium (Grand Turk Island Biotechnology Company, 11330032), 15% fetal calf serum (Sigma, A15-101, USA), 1% penicillin-streptomycin (Biowest, L0022-100).
HEK293 cells overexpressing hERG potassium channel (from Dr. Mohamed Boutjdir's laboratory, School of Medicine, New York University—PharmaCore Labs, Inc.) were incubated in a medium consisting of Dulbecco's modified eagle medium/15% fetal calf serum/1% penicillin-streptomycin in a 5% CO2 incubator at 37° C. In the test, the cells were transferred to a cell bath embedded into a inverted microscope platform, and extracellular fluid was perfused. After stabilization for 5 minutes, the cells were precipitated and then the test could start. Membrane currents were recorded by using HEKA EPC-10 patch clamp amplifier and […] acquisition system (HEKA Instrument Co., Ltd., D-67466 Lambrcht, Palatinate, Germany). All tests were completed at room temperature (22-24° C.). P-97 microelectrode puller (Sutter Instrument Company, Novato, […] 94949) was used to straighten the electrodes (BF150-110-10). The inner diameter of the electrode was 1-1.5 mm, and the water resistance after internal liquid filling was 2-4 MΩ.
Tests were carried out in whole-cell recording mode, with current values recorded according to the electrophysiological stimulation protocol below. First, the membrane voltage was clamped at −80 mV, and the cells were stimulated with +20 mV for two seconds to activate hERG potassium channel, which was then repolarized to −50 mV for five seconds, producing an outward tail current with a stimulation frequency of every 15 seconds. The current value was a peak value of the tail current. In the test, the channel current was recorded in the whole-cell recording mode. First, extracellular fluid (about 2 ml per minute) was perfused and recorded continuously, and then the current was allowed to stabilize (current decay (run-down) was less than 5% within 5 minutes). At this time, the peak value of the tail current was the control current value. Subsequently, the extracellular fluid containing the drug to be tested was perfused and recorded continuously until the inhibiting effect of drug on hERG current reached a stable state, at which time the peak value of the tail current was the current value after adding drugs. After a stable situation was achieved, if hERG current recovered after perfusing and washing with extracellular fluid, perfusion could be continued to test other concentrations or drugs. The solution containing the drugs to be tested was perfused in descending order of concentration and the current values were recorded. […] V2X60 (HEKA Instrument Co., Ltd., D-67466 Lambrcht, Palatinate, Germany) was used to collect data. ORANGE 8.5 (ORANGE Laboratory Company, Northampton, UK) software was used for the analysis and statistics.

The target in another assay is JAK3 (Homo sapiens (Human), UniProt P52333). As to the kind of experiment: JAK3 LANCE Ultra kinase assay. The settings on record: 4 uM ATP. The class given is biochemical.
In another assay the test system is male ICR mice. As to the kind of experiment: Carrageenan-induced paw swelling in mice. The class given is in vivo. The note with it: 10 mg/kg intragastric; for Paw swelling_0.5 h (%): 0.5 h; for Paw swelling rate_1 h (%): 1 h; for Paw swelling rate_2 h (%): 2 h. The procedure, abridged:
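Compounds in 4% Tween 80/0.5% HPMC given intragastrically at 10 mg/kg (10 ml/kg); 0.5 h later 20 μL 1% carrageenan injected into the plantar. Paw volume measured before and at 0.5, 1 and 2 h; swelling rate expressed relative to baseline paw volume.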

Structures are written as SMILES. A value given as a limit tells only on which side of the number the result lay.

Sequence of JAK3 (P52333 whole entry): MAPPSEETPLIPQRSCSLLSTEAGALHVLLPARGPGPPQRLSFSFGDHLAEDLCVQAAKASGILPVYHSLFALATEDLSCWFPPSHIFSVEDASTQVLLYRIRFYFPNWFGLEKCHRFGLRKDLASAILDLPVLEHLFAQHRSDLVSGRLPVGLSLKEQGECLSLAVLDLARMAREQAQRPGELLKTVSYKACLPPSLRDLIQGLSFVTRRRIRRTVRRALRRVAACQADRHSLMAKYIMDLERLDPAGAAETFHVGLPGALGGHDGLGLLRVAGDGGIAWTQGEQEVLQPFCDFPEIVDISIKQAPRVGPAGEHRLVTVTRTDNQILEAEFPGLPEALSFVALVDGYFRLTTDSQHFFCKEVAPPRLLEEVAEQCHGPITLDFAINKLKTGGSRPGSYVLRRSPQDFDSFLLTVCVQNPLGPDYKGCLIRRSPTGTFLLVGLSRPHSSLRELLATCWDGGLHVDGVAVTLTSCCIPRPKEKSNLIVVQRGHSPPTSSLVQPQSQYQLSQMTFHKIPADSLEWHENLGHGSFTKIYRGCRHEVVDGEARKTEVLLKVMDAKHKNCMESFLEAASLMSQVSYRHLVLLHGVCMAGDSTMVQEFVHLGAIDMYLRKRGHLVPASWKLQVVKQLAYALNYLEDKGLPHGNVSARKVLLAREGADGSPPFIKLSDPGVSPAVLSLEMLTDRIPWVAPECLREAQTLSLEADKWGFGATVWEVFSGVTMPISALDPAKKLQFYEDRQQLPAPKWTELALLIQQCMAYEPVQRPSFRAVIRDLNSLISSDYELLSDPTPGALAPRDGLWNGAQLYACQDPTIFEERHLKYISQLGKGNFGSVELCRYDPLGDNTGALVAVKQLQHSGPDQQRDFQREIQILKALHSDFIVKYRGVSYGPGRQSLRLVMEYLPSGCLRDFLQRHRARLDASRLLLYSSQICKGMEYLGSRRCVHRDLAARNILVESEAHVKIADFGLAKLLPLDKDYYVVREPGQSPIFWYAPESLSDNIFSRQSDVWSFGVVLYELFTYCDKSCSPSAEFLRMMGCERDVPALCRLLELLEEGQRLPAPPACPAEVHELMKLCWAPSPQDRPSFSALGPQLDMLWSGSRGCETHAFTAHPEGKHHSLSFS
Sequence of JAK1 (P23458 whole entry): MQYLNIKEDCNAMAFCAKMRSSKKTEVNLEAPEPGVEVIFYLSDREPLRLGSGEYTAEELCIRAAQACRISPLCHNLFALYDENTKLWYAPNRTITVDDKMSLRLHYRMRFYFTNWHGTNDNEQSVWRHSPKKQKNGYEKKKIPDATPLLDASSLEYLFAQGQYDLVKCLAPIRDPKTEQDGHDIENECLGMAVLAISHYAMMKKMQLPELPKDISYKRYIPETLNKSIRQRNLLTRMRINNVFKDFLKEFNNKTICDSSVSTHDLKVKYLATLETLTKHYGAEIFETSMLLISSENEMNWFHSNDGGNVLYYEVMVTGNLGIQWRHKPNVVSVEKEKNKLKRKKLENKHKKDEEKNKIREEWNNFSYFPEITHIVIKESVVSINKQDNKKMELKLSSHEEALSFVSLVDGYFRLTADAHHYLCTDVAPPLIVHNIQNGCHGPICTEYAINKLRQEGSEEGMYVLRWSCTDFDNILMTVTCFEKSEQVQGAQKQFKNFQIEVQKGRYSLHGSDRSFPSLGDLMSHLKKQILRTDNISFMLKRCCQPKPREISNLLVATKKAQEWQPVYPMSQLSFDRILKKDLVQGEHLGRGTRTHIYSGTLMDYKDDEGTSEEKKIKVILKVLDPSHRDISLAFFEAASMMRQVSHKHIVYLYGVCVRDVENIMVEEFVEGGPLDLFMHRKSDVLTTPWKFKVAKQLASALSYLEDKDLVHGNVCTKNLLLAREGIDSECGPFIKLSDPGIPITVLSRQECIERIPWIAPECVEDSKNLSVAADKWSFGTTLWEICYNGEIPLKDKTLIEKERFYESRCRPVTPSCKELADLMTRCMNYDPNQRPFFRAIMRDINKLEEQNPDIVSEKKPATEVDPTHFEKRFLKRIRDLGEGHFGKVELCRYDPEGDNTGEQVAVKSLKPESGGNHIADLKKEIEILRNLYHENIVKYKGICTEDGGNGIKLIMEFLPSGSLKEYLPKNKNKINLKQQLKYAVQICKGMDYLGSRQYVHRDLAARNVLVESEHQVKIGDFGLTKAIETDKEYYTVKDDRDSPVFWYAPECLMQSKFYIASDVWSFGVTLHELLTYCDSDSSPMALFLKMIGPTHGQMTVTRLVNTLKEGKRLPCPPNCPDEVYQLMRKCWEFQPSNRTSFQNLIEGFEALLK
Sequence of hERG potassium channel (Q12809 whole entry): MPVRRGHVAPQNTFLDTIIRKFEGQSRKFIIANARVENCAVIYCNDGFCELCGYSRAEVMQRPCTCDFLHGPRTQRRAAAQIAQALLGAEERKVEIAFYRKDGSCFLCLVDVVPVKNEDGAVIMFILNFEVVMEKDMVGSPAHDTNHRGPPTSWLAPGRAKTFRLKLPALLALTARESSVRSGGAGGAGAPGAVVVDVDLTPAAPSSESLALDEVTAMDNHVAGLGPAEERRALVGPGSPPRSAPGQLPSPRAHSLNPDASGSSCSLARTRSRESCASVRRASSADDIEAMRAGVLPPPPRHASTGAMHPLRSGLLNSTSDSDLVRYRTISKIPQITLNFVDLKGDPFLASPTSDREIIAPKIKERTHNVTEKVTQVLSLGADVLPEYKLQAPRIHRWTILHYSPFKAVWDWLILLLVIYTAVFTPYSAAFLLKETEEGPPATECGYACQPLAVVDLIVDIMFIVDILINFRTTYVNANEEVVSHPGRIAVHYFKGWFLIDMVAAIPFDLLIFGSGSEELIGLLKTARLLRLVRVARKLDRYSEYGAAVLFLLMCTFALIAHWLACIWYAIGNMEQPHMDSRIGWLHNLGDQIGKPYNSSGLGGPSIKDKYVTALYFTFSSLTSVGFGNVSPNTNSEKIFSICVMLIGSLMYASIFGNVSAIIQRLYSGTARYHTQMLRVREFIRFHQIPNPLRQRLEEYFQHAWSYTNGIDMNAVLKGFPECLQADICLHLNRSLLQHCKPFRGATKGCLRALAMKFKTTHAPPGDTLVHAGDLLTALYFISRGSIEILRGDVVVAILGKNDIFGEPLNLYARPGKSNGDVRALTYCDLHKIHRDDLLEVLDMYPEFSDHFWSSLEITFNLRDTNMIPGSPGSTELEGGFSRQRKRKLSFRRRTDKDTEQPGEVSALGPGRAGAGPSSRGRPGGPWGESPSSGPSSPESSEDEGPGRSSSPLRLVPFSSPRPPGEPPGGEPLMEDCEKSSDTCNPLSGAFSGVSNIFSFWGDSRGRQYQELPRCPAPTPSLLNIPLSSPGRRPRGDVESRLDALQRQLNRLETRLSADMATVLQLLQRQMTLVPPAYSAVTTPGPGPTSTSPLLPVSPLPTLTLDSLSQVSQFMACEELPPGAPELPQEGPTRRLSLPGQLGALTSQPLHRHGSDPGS

Turning to `CC(C)c1nsc(NC(=O)N2C[C@H]3C[C@H](N(C)c4c(C#N)cnc5[nH]ccc45)C[C@H]3C2)n1` [Compound H30, (3aR,5s,6aS)-4-({2-[(3-isopropyl-1,2,4-thiadiazole-5-yl)carbamoyl]-hexahydrocyclopenta[c]pyrrole-5-yl}-methyl-amino)-1H-pyrrolo[2,3-b]pyridin-5-carbonitrile], at JAK1, it took 0.57 nM to reach half-maximal inhibition (IC50) and the JAK2/JAK1 is reported as 11.23. Further, the IC50 at hERG potassium channel was > 30 µM. In addition, 76 nM corresponded to half-maximal inhibition against JAK3 (IC50). Besides, in the assay on male ICR mice, the “Paw swelling_0.5 h (%)” value was determined as 33.12 ± 1.38%, the “Paw swelling rate_1 h (%)” value is recorded as 43.43 ± 2.12% and the “Paw swelling rate_2 h (%)” value is 44.52 ± 4.37%.
For `CN(c1c(C#N)cnc2[nH]ccc12)[C@H]1C[C@@H]2CN(C(=O)Nc3nc(OCC(C)(C)N)ns3)C[C@@H]2C1` [Compound H44, (3aR,5s,6aS)-5-((5-cyano-1H-pyrrolo[2,3-b]pyridin-4-yl)(methyl)amino)-N-(3-(2-amino-2-methyl-propoxy)-1,2,4-thiadiazole-5-yl)hexahydrocyclopentadiene[c]pyrrole-2(1H)-carboxamide], at JAK1, the IC50 worked out at 0.67 nM and the JAK2/JAK1 was determined as 23.28. Besides, the IC50 on hERG potassium channel was > 30 µM. The IC50 at JAK3 worked out at 80 nM. Besides, in the assay with male ICR mice, the “Paw swelling_0.5 h (%)” value was 31.03 ± 2.43%, the “Paw swelling rate_1 h (%)” value is recorded as 42.65 ± 2.21% and the “Paw swelling rate_2 h (%)” value is given as 41.56 ± 3.32%.
Consider `N#Cc1cnc2[nH]ccc2c1N1CC2CN(C(=O)NCC(F)(F)F)CC21` (stereo not drawn) [Compound H39, 6-(5-cyano-1H-pyrrolo[2,3-b]pyridin-4-yl)-N-(2,2,2-trifluoroethyl)-3,6-diazabicyclo[3.2.0]heptane-3-carboxamide], for which, at JAK1, the midpoint of inhibition, the IC50, lay at 0.35 nM and the JAK2/JAK1 is given as 60.00. Moreover, on hERG potassium channel, the IC50 is > 30 µM. In addition, the midpoint of inhibition against JAK3, the IC50, lay at 150 nM. Moreover, in the assay on male ICR mice, the “Paw swelling_0.5 h (%)” value is on record as 30.45 ± 1.74%, the “Paw swelling rate_1 h (%)” value turned out to be 26.44 ± 3.68% and the “Paw swelling rate_2 h (%)” value was found to be 38.99 ± 5.58%.
Take `CN(c1c(C#N)cnc2[nH]ccc12)[C@H]1C[C@@H]2CN(C(=O)Nc3ccc(Cl)c(C(F)(F)F)c3)C[C@@H]2C1` [Compound H25, (3aR,5s,6aS)-N-(4-chloro-3-(trifluoromethyl)phenyl)-5-((5-cyano-1H-pyrrolo[2,3-b]pyridin-4-yl)(methyl)amino)hexahydrocyclopentadiene[c]pyrrole-2(1H)-carboxamide]: at JAK1, inhibition was half-maximal at 0.56 nM (IC50) and the JAK2/JAK1 was determined as 11.96. The IC50 at hERG potassium channel was > 30 µM. Moreover, at JAK3, the IC50 is 58 nM. Besides, in the assay with male ICR mice, the “Paw swelling_0.5 h (%)” value came to 37.45 ± 4.37%, the “Paw swelling rate_1 h (%)” value is recorded as 44.64 ± 3.68% and the “Paw swelling rate_2 h (%)” value is 44.66 ± 5.58%.
With `COc1nsc(NC(=O)N2C[C@H]3C[C@H](N(C)c4c(C#N)cnc5[nH]ccc45)C[C@H]3C2)n1` [Compound H07, (3aR,5s,6aS)-4-({2-[(3-methoxy-1,2,4-thiadiazole-5-yl)carbamoyl]-hexahydrocyclopenta[c]pyrrole-5-yl}-methyl-amino)-1H-pyrrolo[2,3-b]pyridin-5-carbonitrile], at hERG potassium channel, the IC50 was > 30 µM. Moreover, in the assay with male ICR mice, the “Paw swelling_0.5 h (%)” value came to 37.02 ± 1.35%, the “Paw swelling rate_1 h (%)” value was found to be 42.33 ± 2.20% and the “Paw swelling rate_2 h (%)” value is 41.24 ± 3.36%.
With `N#Cc1cnc2[nH]ccc2c1N[C@H]1C[C@@H](NS(=O)(=O)CCC(F)(F)F)C1` [Compound H12, (cis)-4-{[3-(3,3,3-trifluoropropanesulfonamido)-cyclobutyl-1-yl]-amino}-1H-pyrrolo[2,3-b]pyridin-5-carbonitrile], the IC50 at JAK1 came out at 0.56 nM. The IC50 at hERG potassium channel was > 30 µM. Moreover, at JAK3, half-maximal inhibition (IC50) was put at 66 nM. In the assay on male ICR mice, the “Paw swelling_0.5 h (%)” value came to 38.45 ± 4.37%, the “Paw swelling rate_1 h (%)” value worked out at 45.64 ± 3.58% and the “Paw swelling rate_2 h (%)” value is 41.66 ± 5.38%.
Regarding `CCCS(=O)(=O)N[C@H]1C[C@@H](N(C)c2c(C#N)cnc3[nH]ccc23)C1` [Compound H14, (cis)-4-{[3-(propanesulfonamido)-cyclobutyl-1-yl]-methyl-amino}-1H-pyrrolo[2,3-b]pyridin-5-carbonitrile], at JAK1, 1.78 nM corresponded to half-maximal inhibition (IC50) and the JAK2/JAK1 was 5.59. In addition, the IC50 at hERG potassium channel was > 30 µM. The IC50 at JAK3 was determined as 34.2 nM. Moreover, in the assay on male ICR mice, the “Paw swelling_0.5 h (%)” value is listed as 39.03 ± 4.53%, the “Paw swelling rate_1 h (%)” value was 40.65 ± 2.51% and the “Paw swelling rate_2 h (%)” value is 39.00 ± 4.25%.
